In the experiment the test system is L1210 leukemia ip in BDF1 mice, survival T/C. The experiment can be described thus: NCI In Vivo Anticancer Drug Screen. Data for tumor model L1210 Leukemia (intraperitoneal) in B6D2F1 (BDF1) mice. The settings on record: higher = longer survival. A digest of the protocol: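 Transplanted-tumor mice were given test agent; controls received vehicle only. Survival readings from the two groups were divided (treated over control).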

Where [1] appears, read: endpoint: mean survival time, dose: 100.0 mg/kg/injection, schedule: Q01DX001 (ip), vehicle: carboxymethylcellulose (CMC).
The mark [2] stands for this setting: endpoint: mean survival time, dose: 200.0 mg/kg/injection, schedule: Q01DX001 (ip), vehicle: carboxymethylcellulose (CMC).
The mark [3] stands for this setting: endpoint: mean survival time, dose: 400.0 mg/kg/injection, schedule: Q01DX001 (ip), vehicle: carboxymethylcellulose (CMC).

Values joined by “and” are separate entries in the source; they are usually repeats but may differ in a detail not shown here. Equal entries are not always repeated. Toxic doses and inconclusive results are not listed.

Turning to `CCCCCCCCCCCCCCN=C(N)N`, the T/C (endpoint: mean survival time, dose: 50.0 mg/kg/injection, schedule: Q01DX001 (ip), vehicle: carboxymethylcellulose (CMC)) was 105 % of control; the T/C under setting [1] was 97 % of control; the T/C under setting [2] is 97 % of control; the T/C under setting [3] is 94 % of control.

Take `CC[C@H]1CN2CCc3cc(OC)c(OC)cc3[C@@H]2C[C@@H]1C[C@H]1NCCc2cc(O)c(OC)cc21`: the T/C (endpoint: mean survival time, dose: 0.5 mg/kg/injection, schedule: Q01DX015 (ip), vehicle: saline) was 105 % of control and 119 % of control; the T/C (endpoint: mean survival time, dose: 1.0 mg/kg/injection, schedule: Q01DX009 (ip), vehicle: saline) is 116 % of control; the T/C (endpoint: mean survival time, dose: 1.0 mg/kg/injection, schedule: Q01DX015 (ip), vehicle: saline) is 115 % of control and 120 % of control; the T/C (endpoint: mean survival time, dose: 2.0 mg/kg/injection, schedule: Q01DX009 (ip), vehicle: saline) was 115 % of control; the T/C (endpoint: mean survival time, dose: 2.0 mg/kg/injection, schedule: Q## X003 (ip), vehicle: saline) is 104 % of control; the T/C (endpoint: mean survival time, dose: 2.0 mg/kg/injection, schedule: Q## X024 (ip), vehicle: saline) was 114 % of control. The T/C reads like this: (endpoint: mean survival time, dose: 3.0 mg/kg/injection, schedule: Q01DX001 (oral), vehicle: saline) 107 % of control; (endpoint: mean survival time, dose: 3.75 mg/kg/injection, schedule: Q01DX015 (ip), vehicle: saline) 153 % of control; (endpoint: mean survival time, dose: 4.0 mg/kg/injection, schedule: Q01DX001 (ip), vehicle: saline) 113 % of control; (endpoint: mean survival time, dose: 4.0 mg/kg/injection, schedule: Q01DX009 (ip), vehicle: saline) 115 % of control; (endpoint: mean survival time, dose: 4.0 mg/kg/injection, schedule: Q01DX015 (ip), vehicle: saline) 150 % of control; (endpoint: mean survival time, dose: 4.0 mg/kg/injection, schedule: Q04DX003 (ip), vehicle: saline) 116 % of control. For the same molecule, the T/C reads like this: (endpoint: mean survival time, dose: 4.0 mg/kg/injection, schedule: Q## X002 (ip), vehicle: saline) 103 % of control; (endpoint: mean survival time, dose: 4.0 mg/kg/injection, schedule: Q## X003 (ip), vehicle: saline) 103 % of control; (endpoint: mean survival time, dose: 4.0 mg/kg/injection, schedule: Q## X008 (ip), vehicle: saline) 116 % of control; (endpoint: mean survival time, dose: 4.0 mg/kg/injection, schedule: Q## X016 (ip), vehicle: saline) 93 % of control; (endpoint: mean survival time, dose: 4.0 mg/kg/injection, schedule: Q## X024 (ip), vehicle: saline) 122 % of control; (endpoint: mean survival time, dose: 6.0 mg/kg/injection, schedule: Q01DX001 (oral), vehicle: saline) 103 % of control. Also, the T/C (endpoint: mean survival time, dose: 8.0 mg/kg/injection, schedule: Q01DX001 (ip), vehicle: saline) was 111 % of control; the T/C (endpoint: mean survival time, dose: 8.0 mg/kg/injection, schedule: Q01DX005 (ip), vehicle: saline) is 157 % of control; the T/C (endpoint: mean survival time, dose: 8.0 mg/kg/injection, schedule: Q01DX009 (ip), vehicle: saline) is 112 % of control and 86 % of control; the T/C (endpoint: mean survival time, dose: 8.0 mg/kg/injection, schedule: Q04DX003 (ip), vehicle: saline) was 118 % of control; the T/C (endpoint: mean survival time, dose: 8.0 mg/kg/injection, schedule: Q## X002 (ip), vehicle: saline) is 119 % of control; the T/C (endpoint: mean survival time, dose: 8.0 mg/kg/injection, schedule: Q## X003 (ip), vehicle: saline) is 123 % of control. The T/C is 111 % of control (endpoint: mean survival time, dose: 8.0 mg/kg/injection, schedule: Q## X008 (ip), vehicle: saline); 103 % of control (endpoint: mean survival time, dose: 8.0 mg/kg/injection, schedule: Q## X016 (ip), vehicle: saline); 101 % of control (endpoint: mean survival time, dose: 8.0 mg/kg/injection, schedule: Q## X024 (ip), vehicle: saline); 96 % of control (endpoint: mean survival time, dose: 12.0 mg/kg/injection, schedule: Q01DX001 (oral), vehicle: saline); 104 % of control (endpoint: mean survival time, dose: 15.0 mg/kg/injection, schedule: Q01DX015 (ip), vehicle: saline); 118 % of control (endpoint: mean survival time, dose: 16.0 mg/kg/injection, schedule: Q01DX001 (ip), vehicle: saline). Besides, the T/C is 162 % of control (endpoint: mean survival time, dose: 16.0 mg/kg/injection, schedule: Q01DX005 (ip), vehicle: saline); 123 % of control (endpoint: mean survival time, dose: 16.0 mg/kg/injection, schedule: Q01DX009 (ip), vehicle: saline); 102 % of control (endpoint: mean survival time, dose: 16.0 mg/kg/injection, schedule: Q01DX015 (ip), vehicle: saline); 112 % of control (endpoint: mean survival time, dose: 16.0 mg/kg/injection, schedule: Q## X002 (ip), vehicle: saline); 107 % of control (endpoint: mean survival time, dose: 16.0 mg/kg/injection, schedule: Q## X016 (ip), vehicle: saline); 86 % of control (endpoint: mean survival time, dose: 16.0 mg/kg/injection, schedule: Q## X024 (ip), vehicle: saline). For the same molecule, the T/C reads like this: (endpoint: mean survival time, dose: 24.0 mg/kg/injection, schedule: Q01DX001 (oral), vehicle: saline) 102 % of control; (endpoint: mean survival time, dose: 32.0 mg/kg/injection, schedule: Q01DX001 (ip), vehicle: saline) 111 % of control; (endpoint: mean survival time, dose: 32.0 mg/kg/injection, schedule: Q04DX003 (ip), vehicle: saline) 123 % of control; (endpoint: mean survival time, dose: 48.0 mg/kg/injection, schedule: Q01DX001 (oral), vehicle: saline) 121 % of control; (endpoint: mean survival time, dose: 64.0 mg/kg/injection, schedule: Q01DX001 (ip), vehicle: saline) 118 % of control; (endpoint: median survival time, dose: 4.0 mg/kg/injection, schedule: Q04DX003 (ip), vehicle: alkali diluted with saline) 106 % of control. The T/C (endpoint: median survival time, dose: 8.0 mg/kg/injection, schedule: Q04DX003 (ip), vehicle: alkali diluted with saline) is 113 % of control and the T/C (endpoint: median survival time, dose: 16.0 mg/kg/injection, schedule: Q04DX003 (ip), vehicle: alkali diluted with saline) is 121 % of control.

For `O=C1c2ccccc2C(=O)N1c1cc(OCc2ccccc2)cc(OCc2ccccc2)c1`, the T/C runs as follows: (endpoint: mean survival time, dose: 100.0 mg/kg/injection, schedule: Q01DX009 (ip), vehicle: water) 94 % of control; (endpoint: mean survival time, dose: 100.0 mg/kg/injection, schedule: Q04DX003 (ip), vehicle: water) 104 % of control; (endpoint: mean survival time, dose: 200.0 mg/kg/injection, schedule: Q01DX009 (ip), vehicle: water) 91 % of control; (endpoint: mean survival time, dose: 200.0 mg/kg/injection, schedule: Q04DX003 (ip), vehicle: water) 102 % of control; (endpoint: mean survival time, dose: 400.0 mg/kg/injection, schedule: Q01DX009 (ip), vehicle: water) 91 % of control; (endpoint: mean survival time, dose: 400.0 mg/kg/injection, schedule: Q04DX003 (ip), vehicle: water) 102 % of control.

Consider `OCCCCc1nccc2c1[nH]c1ccccc12`, for which the T/C by setting is: (endpoint: mean survival time, dose: 25.0 mg/kg/injection, schedule: Q01DX009 (ip), vehicle: saline) 93 % of control; (endpoint: mean survival time, dose: 50.0 mg/kg/injection, schedule: Q01DX009 (ip), vehicle: saline) 88 % of control; under setting [1], 86 % of control; under setting [2], 93 % of control; under setting [3], 98 % of control.

Consider `[N-]=[N+]=Nc1c(N=[N+]=[N-])c(NS(=O)(=O)c2ccccc2)c2ccccc2c1NS(=O)(=O)c1ccccc1`, for which the T/C by setting is: (endpoint: mean survival time, dose: 100.0 mg/kg/injection, schedule: Q04DX002 (ip), vehicle: saline with Tween-80) 87 % of control; (endpoint: mean survival time, dose: 200.0 mg/kg/injection, schedule: Q04DX002 (ip), vehicle: saline with Tween-80) 97 % of control; (endpoint: mean survival time, dose: 400.0 mg/kg/injection, schedule: Q04DX002 (ip), vehicle: saline with Tween-80) 97 % of control.

`COc1cccc(C(c2ccccc2)C(CC(=O)O)CC(=O)O)c1` (stereo not given): the T/C by setting is: (endpoint: mean survival time, dose: 75.0 mg/kg/injection, schedule: Q04DX002 (ip), vehicle: Klucel (hydroxypropylcellulose) (HPC)) 101 % of control; (endpoint: mean survival time, dose: 150.0 mg/kg/injection, schedule: Q04DX002 (ip), vehicle: Klucel (hydroxypropylcellulose) (HPC)) 108 % of control; (endpoint: mean survival time, dose: 300.0 mg/kg/injection, schedule: Q04DX002 (ip), vehicle: Klucel (hydroxypropylcellulose) (HPC)) 97 % of control.

As to `O=C(CCCC(=O)N/N=C/c1ccc(-c2ccccc2)cc1)N/N=C\c1ccc(-c2ccccc2)cc1`, the T/C runs as follows: (endpoint: mean survival time, dose: 50.0 mg/kg/injection, schedule: Q01DX001 (ip), vehicle: saline) 96 % of control; (endpoint: mean survival time, dose: 100.0 mg/kg/injection, schedule: Q01DX001 (ip), vehicle: saline) 98 % of control; (endpoint: mean survival time, dose: 200.0 mg/kg/injection, schedule: Q01DX001 (ip), vehicle: saline) 96 % of control; (endpoint: mean survival time, dose: 400.0 mg/kg/injection, schedule: Q01DX001 (ip), vehicle: saline) 96 % of control.

As to `Cc1ccc(NC(=O)c2ccccc2-c2ccccc2C(=O)Nc2ccc(C)cc2)cc1`, the T/C (endpoint: mean survival time, dose: 100.0 mg/kg/injection, schedule: Q01DX001 (ip), vehicle: other) was 91 % of control.

The values are drawn from PubChem BioAssay AID248 (DTP/NCI, 2004).
